Results taken from ChEMBL document CHEMBL1201862, “PubChem BioAssay data set” (2004).
The source made the active and inactive calls.

Columns and labels:
[1] = MC4R antagonists, dose response, counter-screen for LGR2 antagonist project, cell-based, plate reader, cherry pick (AID 743444); type: functional;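 further: transfected HEK 293 cells stimulated with alpha-MSH peptide; potency of inhibitors of the alpha-MSH evoked signal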
[2] = LGR2 antagonists, dose response, cell-based, HEK293, CRE-luciferase reporter, cherry pick, set 2 (AID 743343); type: functional;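 further: transfected cells were stimulated with diluted bursicon conditioned medium after compound addition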
[3] = HepG2 cell cytotoxicity, dose response, cytotoxicity control, plate reader, cherry-pick, antagonist series (AID 743416); type: functional, cell-based
[4] = A549 cell cytotoxicity, dose response, cytotoxicity control, plate reader, cherry-pick, antagonist series (AID 743412); type: functional, cell-based
[5] = biological target: Prothrombin (Homo sapiens, UniProt P00734); assay: Thrombin 1536 HTS Dose Response Confirmation. [Related pubchem assays: 1046 (Thrombin 1536 HTS; hits were confirmed in this assay)]; type: functional
[6] = Luminescence Cell-Based Dose Response HTS to Identify Activators of Luciferase Translation or Activity in H4 […] Cells. [Related pubchem assays: 1829 (Project Summary), 1814 (Primary HTS)]; type: functional
[7] = P. falciparum late gametocyte killing, dose response, luminescence (AID 1117278); type: functional, cell-based;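 further: gametocytes exposed to compound for 24 hours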
[8] = Jurkat T cell cytotoxicity, dose response, cytotoxicity control for P. falciparum gametocyte viability project, luminescence (AID 1117277); type: functional, cell-based;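 further: potency reflects loss of cellular ATP meaning fewer viable cells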
[9] = Luminescence Cell-Based Dose Confirmation HTS to Identify Activators of 5'UTR Stem-Loop Driven Alpha-Synuclein mRNA Translation in H4 Neuroglioblastoma Cells. [Related pubchem assays: 1829 (Project Summary), 1814 (Primary HTS)]; type: functional
[10] = test system: H4; assay: Luminescence Cell-Based Dose Response HTS to Identify Activators of 5'UTR Stem-Loop Driven Prion Protein mRNA Translation in H4 Neuroglioblastoma Cells. [Related pubchem assays: 1829 (Project Summary), 1814 (Primary HTS)]; type: functional; details: Homo sapiens
[11] = P. falciparum Dd2 growth inhibitors, dose response, SYBR Green, cherry-picked samples (AID 1159567); type: functional, cell-based
[12] = P. falciparum Dd2 growth inhibitors, dose response, SYBR Green, dry powder samples (AID 1159566); type: functional, cell-based;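 further: potency for growth inhibition with lower SYBR green DNA signal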
[13] = P. falciparum 3D7-ScDHODH growth inhibitors, dose response, SYBR Green, dry powder samples (AID 1159570); type: functional, cell-based;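 further: parasite growth measured after 72 hours of compound exposure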
[14] = P. falciparum ATP4 D1247Y mutant growth inhibitors, dose response, NITD609-resistant line, SYBR Green, dry powder (AID 1159571); type: functional, cell-based;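 further: parasites synchronized at ring stage by sorbitol before testing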
[15] = biological target: T1, Mannose-6-phosphate isomerase (Homo sapiens, UniProt P34949); assay: human PMI inhibitors, high substrate, primary screen, biochemical, fluorescence intensity, high mannose 6-phosphate (AID 1220)
T1 sequence (P34949 whole entry): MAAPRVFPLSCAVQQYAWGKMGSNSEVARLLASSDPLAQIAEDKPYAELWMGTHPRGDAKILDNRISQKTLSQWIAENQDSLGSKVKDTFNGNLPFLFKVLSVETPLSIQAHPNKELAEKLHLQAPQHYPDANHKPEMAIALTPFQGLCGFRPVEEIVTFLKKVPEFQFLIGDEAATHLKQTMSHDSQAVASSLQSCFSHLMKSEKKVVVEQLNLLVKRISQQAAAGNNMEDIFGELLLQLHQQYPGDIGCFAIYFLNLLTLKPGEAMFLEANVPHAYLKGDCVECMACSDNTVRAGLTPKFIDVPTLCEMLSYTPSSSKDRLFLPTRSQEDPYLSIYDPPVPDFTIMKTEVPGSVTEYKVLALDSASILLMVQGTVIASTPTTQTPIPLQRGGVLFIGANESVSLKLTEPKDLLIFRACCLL

[16] = test system: HeLa; assay: HeLa cell cytotoxicity, dose response, cytotoxicity control for MITF activator project, CellTiter-Glo luminescence, cherry-pick samples (AID 540259); type: functional, cell-based; details: Homo sapiens
[17] = biological target: T2, Protein skinhead-1 (Caenorhabditis elegans, UniProt P34707); type: functional
T2 sequence (P34707 whole entry): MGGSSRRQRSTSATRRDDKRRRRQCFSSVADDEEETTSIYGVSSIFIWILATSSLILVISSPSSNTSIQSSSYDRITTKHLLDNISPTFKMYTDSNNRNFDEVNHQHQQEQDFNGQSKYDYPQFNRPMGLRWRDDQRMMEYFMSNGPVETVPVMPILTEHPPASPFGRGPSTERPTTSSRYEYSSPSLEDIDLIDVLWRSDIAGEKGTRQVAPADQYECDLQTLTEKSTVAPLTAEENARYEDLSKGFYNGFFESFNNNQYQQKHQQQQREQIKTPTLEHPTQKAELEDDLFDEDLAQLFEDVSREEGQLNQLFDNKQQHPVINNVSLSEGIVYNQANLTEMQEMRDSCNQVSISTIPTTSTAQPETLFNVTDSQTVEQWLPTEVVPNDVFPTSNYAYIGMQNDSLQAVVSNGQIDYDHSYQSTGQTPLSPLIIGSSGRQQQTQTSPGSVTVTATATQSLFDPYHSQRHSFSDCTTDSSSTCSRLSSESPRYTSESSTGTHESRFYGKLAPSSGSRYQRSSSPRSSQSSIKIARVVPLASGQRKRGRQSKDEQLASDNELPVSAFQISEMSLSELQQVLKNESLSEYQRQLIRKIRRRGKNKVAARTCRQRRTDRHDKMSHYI

[18] = biological target: Induced myeloid leukemia cell differentiation protein Mcl-1 (Homo sapiens, UniProt Q07820); type: functional
Sequence of Induced myeloid leukemia cell differentiation protein Mcl-1 (Q07820 whole entry): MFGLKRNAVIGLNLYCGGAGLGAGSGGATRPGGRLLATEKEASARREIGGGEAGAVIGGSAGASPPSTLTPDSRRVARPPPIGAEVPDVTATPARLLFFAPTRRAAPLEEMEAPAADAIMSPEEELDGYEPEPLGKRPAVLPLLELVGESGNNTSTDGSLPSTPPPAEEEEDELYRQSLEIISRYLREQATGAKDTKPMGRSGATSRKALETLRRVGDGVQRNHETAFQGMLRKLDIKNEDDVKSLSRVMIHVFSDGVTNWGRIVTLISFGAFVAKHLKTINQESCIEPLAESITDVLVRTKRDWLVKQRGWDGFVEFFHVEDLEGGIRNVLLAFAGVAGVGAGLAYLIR

[19] = NIH-3T3 fibroblast cytotoxicity, dose response, cytotoxicity control, cell-based, fluorescence, Alamar Blue, secondary assay (AID 2327); type: functional;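 further: NIH-3T3 mouse fibroblasts cultured with fluconazole at 8 µg/mL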
[20] = C. albicans growth with fluconazole, confirmation, fluorescence, retest (AID 2467); type: functional, cell-based
[21] = biological target: T3, Polyadenylate-binding protein 1 (Homo sapiens, UniProt P11940); assay: PABP1 MLLE–PAM2 binding inhibitor potency, dose response, biochemical, fluorescence polarization, FITC-PAM2 peptide (AID 602259); type: functional; details: read-out: IC50_Mean
T3 sequence (P11940 whole entry): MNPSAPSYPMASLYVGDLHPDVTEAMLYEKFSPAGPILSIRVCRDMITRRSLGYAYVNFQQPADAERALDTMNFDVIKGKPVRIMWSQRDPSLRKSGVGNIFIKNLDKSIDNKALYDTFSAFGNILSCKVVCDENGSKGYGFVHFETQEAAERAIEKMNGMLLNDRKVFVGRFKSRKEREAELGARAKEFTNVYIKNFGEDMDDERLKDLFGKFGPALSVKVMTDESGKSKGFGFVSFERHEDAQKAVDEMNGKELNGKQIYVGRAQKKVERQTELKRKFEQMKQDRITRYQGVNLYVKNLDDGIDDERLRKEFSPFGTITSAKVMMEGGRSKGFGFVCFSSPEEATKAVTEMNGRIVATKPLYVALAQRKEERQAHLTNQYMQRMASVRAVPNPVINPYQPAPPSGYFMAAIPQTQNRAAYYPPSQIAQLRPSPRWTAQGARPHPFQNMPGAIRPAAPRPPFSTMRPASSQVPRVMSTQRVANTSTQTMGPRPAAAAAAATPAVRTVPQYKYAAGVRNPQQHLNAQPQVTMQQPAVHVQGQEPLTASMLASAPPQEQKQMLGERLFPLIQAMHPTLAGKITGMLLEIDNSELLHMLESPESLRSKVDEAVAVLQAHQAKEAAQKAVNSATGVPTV

[22] = biological target: T3, Polyadenylate-binding protein 1; assay: PABP1 MLLE–PAM2 interaction inhibitors, dose response, miRNA deadenylation inhibitor project, biochemical, fluorescence polarization, Cy5-PAM2 peptide, secondary (AID 602260); type: functional; details: read-out: IC50_Mean
[23] = inhibitors of clade B AD8 Env fusion, dose response, cell-based, cherry-pick (AID 652062); type: functional;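 further: luciferase signal from cell-cell fusion driven by HIV-1 clade B AD8 Env; potency is for inhibitors of fusion seen as a drop in luminescence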
[24] = inhibitors of HIV Env-driven cell fusion, dose response, cherry-pick (AID 652057); type: functional, cell-based
[25] = cells; type: functional
[26] = biological target: T4, Calpain-2 catalytic subunit (Sus scrofa, UniProt P43367); assay: pig calpain II inhibitor potency, dose response, biochemical, fluorogenic peptide substrate (AID 1420); type: functional
T4 sequence (P43367 whole entry): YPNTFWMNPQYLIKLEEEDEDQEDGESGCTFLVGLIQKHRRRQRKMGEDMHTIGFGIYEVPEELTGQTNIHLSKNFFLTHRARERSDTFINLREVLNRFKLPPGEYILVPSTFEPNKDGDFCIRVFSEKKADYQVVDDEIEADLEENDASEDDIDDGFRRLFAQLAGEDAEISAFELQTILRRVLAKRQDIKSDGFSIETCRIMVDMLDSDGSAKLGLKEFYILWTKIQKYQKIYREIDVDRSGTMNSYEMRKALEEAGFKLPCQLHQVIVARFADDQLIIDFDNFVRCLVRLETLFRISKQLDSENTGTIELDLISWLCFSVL

[27] = cytotoxicity toward NIH3T3 fibroblasts, dose response, counter-screen, cell-based, ATP luminescence, mouse fibroblasts (AID 2010); type: functional;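 further: cells exposed to compound for about 90 hours before reading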
[28] = inhibitors of intracellular T. cruzi replication, confirmation, NIH3T3 host cells, beta-gal luminescence (AID 2044); type: functional, cell-based;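 further: intracellular parasites grown in NIH/3T3 mouse fibroblasts as host cells; luminescent beta-galactosidase reporter signal from transgenic T. cruzi replicating inside host cells; inhibitors lower the luminescence signal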
[29] = growth suppression of PTEN-null colon cells, dose response, cell-based, HCT116 PTEN knockout (AID 1047); type: functional;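 further: HCT116 colon tumor cells with PTEN knocked out; cells exposed to compound for 60 hours before readout; potency for loss of cell viability measured by luminescence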
[30] = growth suppression of beta-catenin-knockout colon cells, dose response, cell-based, HCT116, human colon tumor (AID 1045); type: functional;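 further: HCT116 colon tumor cells with beta catenin knocked out; cells exposed to compound for 60 hours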

Structure (SMILES): O=C(CCc1nnc(CCCCc2ccccc2)o1)N1CCCC(O)C1 (stereo not given)
- AC50 [1]: 3.46 µM (active)
- AC50 [2]: 3.63 µM (active)
- AC50 [3]: > 52 µM (inactive)
- AC50 [4]: 0.513 µM (active)

Structure (SMILES): CC(C)c1ccc(-c2c(C#N)c(N)nc(SCC(=O)N3CCCCCC3)c2C#N)cc1
- IC50 [5]: > 50 µM (not active)

Structure (SMILES): Cc1cccn2cc(-c3ccc4c(c3)NC(=O)CO4)nc12
- EC50 [6]: 34.6 µM (active)
- IC50 [7]: > 109 µM (inactive)
- IC50 [8]: > 83.3 µM (inactive)
- EC50 [9]: 7.24 µM (active)
- EC50 [10]: 7 µM (active)

Structure (SMILES): COc1ccc2c3c([nH]c2c1)[C@H](CO)NCC31CCN(C(=O)Nc2ccc3c(c2)OCO3)CC1
- AC50 [11]: 0.914 µM (active)
- AC50 [12]: 0.49 µM (active)
- AC50 [13]: 1.41 µM (active)
- AC50 [14]: 0.949 µM (active)

Structure (SMILES): CCC(Oc1ccccc1)C(=O)NCc1ccc(S(N)(=O)=O)cc1 (stereo not given)
- IC50 [7]: > 109 µM (inactive)
- IC50 [8]: > 83.3 µM (inactive)

Structure (SMILES): CCN(Cc1ccncc1)Cc1c(O)ccc2ccccc12
- IC50 [15]: > 50 µM (not active)

Structure (SMILES): CCOc1cc(S(=O)(=O)N2CCCCC2)ccc1Cl
- IC50 [5]: > 50 µM (not active)

Structure (SMILES): C(=C\c1nnc(-c2cccs2)o1)/c1ccccc1
- AC50 [16]: 50.6 µM (active)
- IC50 [17]: 11.9 µM (active)

Structure (SMILES): C[C@H]1CN([C@@H](C)CO)C(=O)c2cc(NC(=O)Nc3ccccc3)ccc2O[C@H]1CN(C)Cc1ccc(-c2ccccc2)cc1
- AC50 [1]: 39.4 µM (active)
- AC50 [3]: > 52 µM (inactive)
- AC50 [4]: 24.2 µM (active)

Structure (SMILES): COCC(=O)n1nc(-c2ccccc2)nc1NCc1ccc(F)cc1
- IC50 [5]: 0.103 µM (active)

Structure (SMILES): N#C[C@@H]1[C@H](c2ccc(C#Cc3cccc(F)c3)cc2)[C@@H](CO)N1C(=O)C1CC1
- AC50 [2]: 61.3 µM (active)
- AC50 [3]: 36.7 µM (active)
- AC50 [4]: 24.4 µM (active)

Structure (SMILES): CCOC(=O)N1CCN(C(=O)c2ccccc2N(C)S(C)(=O)=O)CC1
- IC50 [5]: > 50 µM (not active)

Structure (SMILES): O=C1C2C3C=CC(C2C(=O)N1c1cccc(O)c1)C1C2C(=O)N(c4cccc(O)c4)C(=O)C2C31 (stereo not given)
- IC50 [18]: 9.49 µM (not active)

Structure (SMILES): Cc1cc(N2CCN(c3ccccc3)CC2)nc(-c2ccccc2)n1
- IC50 [5]: > 50 µM (not active)

Structure (SMILES): Cc1ccc(Nc2nc(Cl)nc(NC(C)(C)C)n2)cc1
- AC50 [16]: 159 µM (active)
- EC50 [19]: > 160 µM (inactive)
- EC50 [20]: 1.98 µM (active)

Structure (SMILES): Cc1cccc(NC(=O)c2cc3n(n2)C(C(F)(F)F)CC(C2CC2)N3)c1C (stereo not given)
- IC50 [7]: > 109 µM (inactive)
- IC50 [8]: > 83.3 µM (inactive)

Structure (SMILES): O=C(O)c1cccc(NC(=S)NC(=O)c2cccc(OCc3ccccc3)c2)c1
- IC50 [21]: > 66 µM (inactive)
- IC50 [22]: > 66 µM (inactive)

Structure (SMILES): O=C1OC(c2ccccc2)C2(CCCC2)C(=O)C12CCCC2 (stereo not given)
- IC50 [7]: > 109 µM (inactive)
- IC50 [8]: > 83.3 µM (inactive)

Structure (SMILES): Cc1ccc(-c2ccc3c(c2)O[C@H](CN(C)Cc2ccncc2)[C@@H](C)CN([C@@H](C)CO)S3(=O)=O)cc1
- AC50 [23]: 26.5 µM (active)
- AC50 [24]: 12.8 µM (active)

Structure (SMILES): Cc1ccc(C(=O)Oc2cccc(-n3cnnn3)c2)cc1
- AC50 [16]: > 350 µM (inactive)
- IC50 [25]: 13.7 µM (active)
- IC50 [26]: 10.5 µM (not active)

Structure (SMILES): O=C1/C(=C/c2ccccn2)SC(=S)N1c1ccc(O)cc1
- IC50 [18]: 5.85 µM (active)

Structure (SMILES): COCC(C)n1c(C)cc(C(=O)COC(=O)c2ccc3c(c2)NC(=O)CS3)c1C (stereo not given)
- IC50 [21]: > 66 µM (inactive)
- IC50 [22]: > 66 µM (inactive)

Structure (SMILES): Nc1cc(Nc2ccccc2)c2nonc2c1[N+](=O)[O-]
- IC50 [21]: > 66 µM (inactive)
- IC50 [22]: > 66 µM (inactive)

Structure (SMILES): CCc1c(C)sc(NC(=O)c2cc(C3CC3)on2)c1C#N
- IC50 [21]: > 66 µM (inactive)
- IC50 [22]: > 66 µM (inactive)

Structure (SMILES): CC(=O)Nc1c(Nc2ccccc2)c2ccccc2oc1=O
- IC50 [21]: > 66 µM (inactive)
- IC50 [22]: > 66 µM (inactive)

Structure (SMILES): COc1ccc(OC)c(C2=NOC(C(=O)Nc3cc(C)on3)C2)c1 (stereo not given)
- IC50 [7]: > 109 µM (inactive)
- IC50 [8]: > 83.4 µM (inactive)

Structure (SMILES): CCN(CC)Cc1ccccc1Sc1ccccc1
- IC50 [5]: > 50 µM (not active)

Structure (SMILES): Oc1ccc(CNc2ccc(F)cc2)c2cccnc12
- EC50 [27]: > 60 µM (not active)
- EC50 [28]: 5.56 µM (active)
- IC50 [15]: 31 µM (active)

Structure (SMILES): Cc1c(O)ccc(/C=N/Nc2nc(-c3cccnc3)nc3ccccc23)c1O
- IC50 [18]: 6.03 µM (active)

Structure (SMILES): C/N=C(/c1ccco1)n1c(=S)nc(-c2ccco2)n(C)c1=S
- IC50 [15]: > 50 µM (not active)

Structure (SMILES): c1cncc(-c2nnc(-c3cccnc3)nn2)c1
- EC50 [29]: 9.23 µM (active)
- EC50 [30]: 9.6 µM (active)
- IC50 [21]: > 66 µM (inactive)
- IC50 [22]: > 66 µM (inactive)
